Measurements from PubChem BioAssay AID2060500 (Molecular Pharmacology Branch, DTP, NCI, 2025).

System: 596521-263-R-J1-PDC complex spheroids, viability % of control
Assay: Anticancer human tumor 596521-263-R-J1-PDC patient-derived soft tissue sarcoma cell line growth inhibition [GQUAD]
Details: for IC50: curve of first compound; for viability, T/C: stronger effect = lower value
How it was run: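 Viability of tumor cells grown as complex spheroids with endothelial and stromal cells, exposed to drug combinations. Top concentration at or near clinical Cmax (else 10 microM), diluted in half-log increments.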

[1] = second compound 0.0316 µM, first compound 0.0316 µM
[2] = second compound 0.0316 µM, first compound 0.1 µM
[3] = second compound 0.0316 µM, first compound 0.316 µM
[4] = second compound 0.0316 µM, first compound 1 µM
[5] = second compound 0.0316 µM, first compound 3.16 µM
[6] = second compound 0.0316 µM, first compound 10 µM
[7] = second compound 0.1 µM, first compound 0.0316 µM
[8] = second compound 0.1 µM, first compound 0.1 µM
[9] = second compound 0.1 µM, first compound 0.316 µM
[10] = second compound 0.1 µM, first compound 1 µM
[11] = second compound 0.1 µM, first compound 3.16 µM
[12] = second compound 0.1 µM, first compound 10 µM
[13] = second compound 0.316 µM, first compound 0.0316 µM
[14] = second compound 0.316 µM, first compound 0.1 µM
[15] = second compound 0.316 µM, first compound 0.316 µM
[16] = second compound 0.316 µM, first compound 1 µM
[17] = second compound 0.316 µM, first compound 3.16 µM
[18] = second compound 0.316 µM, first compound 10 µM
[19] = second compound 1 µM, first compound 0.0316 µM
[20] = second compound 1 µM, first compound 0.1 µM
[21] = second compound 1 µM, first compound 0.316 µM
[22] = second compound 1 µM, first compound 1 µM
[23] = second compound 1 µM, first compound 3.16 µM
[24] = second compound 1 µM, first compound 10 µM
[25] = second compound 3.16 µM, first compound 0.0316 µM
[26] = second compound 3.16 µM, first compound 0.1 µM
[27] = second compound 3.16 µM, first compound 0.316 µM
[28] = second compound 3.16 µM, first compound 1 µM
[29] = second compound 3.16 µM, first compound 3.16 µM
[30] = second compound 3.16 µM, first compound 10 µM
[31] = second compound 10 µM, first compound 0.0316 µM
[32] = second compound 10 µM, first compound 0.1 µM
[33] = second compound 10 µM, first compound 0.316 µM
[34] = second compound 10 µM, first compound 1 µM
[35] = second compound 10 µM, first compound 3.16 µM
[36] = second compound 10 µM, first compound 10 µM
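Also: spheroids exposed to drugs for 7 days before viability reading.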
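For viability, T/C in this document: 100% = DMSO vehicle control viability.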

`CC1COCCN1c1cc(C2(O)CC3CCC(C2)O3)c2cnn(-c3ccn[nH]3)c2n1` (stereo not drawn) + CN(C)c1ccc(Nc2c3ccc(NC(=O)CCN4CCCC4)cc3nc3cc(NC(=O)CCN4CCCC4)ccc23)cc1 showed an IC50 (second compound 0.0316 µM) of 0.134 µM, an IC50 (second compound 0.1 µM) of 0.221 µM and an IC50 (second compound 0.316 µM) of 0.148 µM. The IC50 (second compound 1 µM) was 0.162 µM, the IC50 (second compound 3.16 µM) was 0.112 µM and the IC50 (second compound 10 µM) was 0.0664 µM. For the same compound, the viability, T/C [1] was 72.6%, the viability, T/C [2] was 48.7% and the viability, T/C [3] was 40.9%. It also gave a viability, T/C [4] of 29.4%, a viability, T/C [5] of 24.3% and a viability, T/C [6] of 12.3%. The viability, T/C [7] was 70.3%, the viability, T/C [8] was 56.9% and the viability, T/C [9] was 48.3%. The viability, T/C [10] was 32.6%, the viability, T/C [11] was 22.8% and the viability, T/C [12] was 13.6%. The viability, T/C [13] was 66.3%, the viability, T/C [14] was 48.8% and the viability, T/C [15] was 47.3%. The viability, T/C [16] was 31.9%, the viability, T/C [17] was 20.4% and the viability, T/C [18] was 13.2%. It also gave a viability, T/C [19] of 69.6%, a viability, T/C [20] of 50.3% and a viability, T/C [21] of 46.6%. It also gave a viability, T/C [22] of 31.1%, a viability, T/C [23] of 24.7% and a viability, T/C [24] of 14.3%. For the same compound, the viability, T/C [25] was 58.5%, the viability, T/C [26] was 51.2% and the viability, T/C [27] was 40.5%. For the same compound, the viability, T/C [28] was 35.2%, the viability, T/C [29] was 23.9% and the viability, T/C [30] was 15.6%. For the same compound, the viability, T/C [31] was 61.7%, the viability, T/C [32] was 39% and the viability, T/C [33] was 36.8%. The viability, T/C [34] was 28.2%, the viability, T/C [35] was 21.6% and the viability, T/C [36] was 14.8%.
`CC1COCCN1c1cc(C2(S(C)(=N)=O)CC2)nc(-c2ccnc3[nH]ccc23)n1` (stereo not drawn) + CN(C)c1ccc(Nc2c3ccc(NC(=O)CCN4CCCC4)cc3nc3cc(NC(=O)CCN4CCCC4)ccc23)cc1 gave an IC50 (second compound 0.0316 µM) greater than 10 µM, an IC50 (second compound 0.1 µM) of 9.59 µM and an IC50 (second compound 0.316 µM) greater than 10 µM. It also gave an IC50 (second compound 1 µM) greater than 10 µM, an IC50 (second compound 3.16 µM) greater than 10 µM and an IC50 (second compound 10 µM) of 4.38 µM. It also gave a viability, T/C [1] of 93.1%, a viability, T/C [2] of 97.1% and a viability, T/C [3] of 86.9%. The viability, T/C [4] was 77.9%, the viability, T/C [5] was 62.9% and the viability, T/C [6] was 52.3%. It also gave a viability, T/C [7] of 97.5%, a viability, T/C [8] of 97.7% and a viability, T/C [9] of 95.1%. The viability, T/C [10] was 71.5%, the viability, T/C [11] was 64.8% and the viability, T/C [12] was 48%. For the same compound, the viability, T/C [13] was 96.6%, the viability, T/C [14] was 90.8% and the viability, T/C [15] was 87.3%. It also gave a viability, T/C [16] of 85.1%, a viability, T/C [17] of 54.2% and a viability, T/C [18] of 51.2%. The viability, T/C [19] was 90.4%, the viability, T/C [20] was 103% and the viability, T/C [21] was 94.1%. It also gave a viability, T/C [22] of 76.4%, a viability, T/C [23] of 64.3% and a viability, T/C [24] of 57.3%. For the same compound, the viability, T/C [25] was 94.5%, the viability, T/C [26] was 83.1% and the viability, T/C [27] was 78.2%. For the same compound, the viability, T/C [28] was 80%, the viability, T/C [29] was 61.4% and the viability, T/C [30] was 50%. For the same compound, the viability, T/C [31] was 66.8%, the viability, T/C [32] was 67.1% and the viability, T/C [33] was 65.6%. It also gave a viability, T/C [34] of 52.8%, a viability, T/C [35] of 53.8% and a viability, T/C [36] of 44.9%.
`COc1ccc([C@@H](O)c2cc(-c3ncnc4cc(N5CCOCC5)ccc34)c(F)cc2Cl)nn1` + CN(C)c1ccc(Nc2c3ccc(NC(=O)CCN4CCCC4)cc3nc3cc(NC(=O)CCN4CCCC4)ccc23)cc1 was tested, and the IC50 (second compound 0.0316 µM) was 7.69 µM, the IC50 (second compound 0.1 µM) was 9.12 µM and the IC50 (second compound 0.316 µM) was greater than 10 µM. It also gave an IC50 (second compound 1 µM) of 7.49 µM, an IC50 (second compound 3.16 µM) greater than 10 µM and an IC50 (second compound 10 µM) of 1.16 µM. For the same compound, the viability, T/C [1] was 95.1%, the viability, T/C [2] was 91.2% and the viability, T/C [3] was 97.5%. For the same compound, the viability, T/C [4] was 88.4%, the viability, T/C [5] was 67.7% and the viability, T/C [6] was 44.8%. It also gave a viability, T/C [7] of 89.5%, a viability, T/C [8] of 101% and a viability, T/C [9] of 91.9%. It also gave a viability, T/C [10] of 77.1%, a viability, T/C [11] of 65.6% and a viability, T/C [12] of 48.1%. The viability, T/C [13] was 96.1%, the viability, T/C [14] was 94.2% and the viability, T/C [15] was 81.1%. The viability, T/C [16] was 81.8%, the viability, T/C [17] was 64.1% and the viability, T/C [18] was 51.8%. The viability, T/C [19] was 93.8%, the viability, T/C [20] was 84.3% and the viability, T/C [21] was 93.9%. The viability, T/C [22] was 83.4%, the viability, T/C [23] was 63.2% and the viability, T/C [24] was 45.6%. It also gave a viability, T/C [25] of 87.4%, a viability, T/C [26] of 87.5% and a viability, T/C [27] of 84.7%. For the same compound, the viability, T/C [28] was 66.1%, the viability, T/C [29] was 64.1% and the viability, T/C [30] was 49.5%. It also gave a viability, T/C [31] of 70.5%, a viability, T/C [32] of 56.7% and a viability, T/C [33] of 59.1%. It also gave a viability, T/C [34] of 48.4%, a viability, T/C [35] of 49.4% and a viability, T/C [36] of 31.6%.
In the case of `O=C(c1cc(Cc2n[nH]c(=O)c3ccccc23)ccc1F)N1CCN(C(=O)C2CC2)CC1` + CN(C)c1ccc(Nc2c3ccc(NC(=O)CCN4CCCC4)cc3nc3cc(NC(=O)CCN4CCCC4)ccc23)cc1, the IC50 (second compound 0.0316 µM) is reported as greater than 10 µM, the IC50 (second compound 0.1 µM) is reported as greater than 10 µM and the IC50 (second compound 0.316 µM) is reported as greater than 10 µM. For the same compound, the IC50 (second compound 1 µM) was greater than 10 µM, the IC50 (second compound 3.16 µM) was greater than 10 µM and the IC50 (second compound 10 µM) was greater than 10 µM. It also gave a viability, T/C [1] of 112%, a viability, T/C [2] of 106% and a viability, T/C [3] of 101%. The viability, T/C [4] was 104%, the viability, T/C [5] was 86.2% and the viability, T/C [6] was 68%. The viability, T/C [7] was 108%, the viability, T/C [8] was 89.3% and the viability, T/C [9] was 97.4%. For the same compound, the viability, T/C [10] was 99%, the viability, T/C [11] was 88.3% and the viability, T/C [12] was 67.9%. It also gave a viability, T/C [13] of 114%, a viability, T/C [14] of 103% and a viability, T/C [15] of 101%. It also gave a viability, T/C [16] of 103%, a viability, T/C [17] of 88.5% and a viability, T/C [18] of 74.3%. It also gave a viability, T/C [19] of 108%, a viability, T/C [20] of 98.2% and a viability, T/C [21] of 109%. It also gave a viability, T/C [22] of 99.2%, a viability, T/C [23] of 94.6% and a viability, T/C [24] of 69.2%. It also gave a viability, T/C [25] of 110%, a viability, T/C [26] of 89.6% and a viability, T/C [27] of 90.8%. It also gave a viability, T/C [28] of 89.9%, a viability, T/C [29] of 91% and a viability, T/C [30] of 70.8%. It also gave a viability, T/C [31] of 70.4%, a viability, T/C [32] of 62.2% and a viability, T/C [33] of 76.7%. For the same compound, the viability, T/C [34] was 72.4%, the viability, T/C [35] was 66.5% and the viability, T/C [36] was 59.9%.
